Test results published in patent US9796714B2, “Calcium channel agonists” (University of Pittsburgh—Of the Commonwealth System of …, priority 2013, dated 2017).
Where two headings read alike, the source gives them in different places.

How the values were obtained:
[1] = target: T1, N-type Ca^2+ channel (Cav2.2) (Rattus norvegicus, UniProt Q02294); assay: N-type Ca2+ channel agonist activity, whole-cell perforated patch clamp of tail currents in tsA201 cells; format: cell-based
T1 construct: expressed in transfected cells; later also transient transfection
Procedure: tsA201 cells expressing calcium channels. […] For subsequent evaluation of effects on N-, P/Q-, or L-type channels, tsA-201 cells were transiently transfected with Cav2.2, Cav2.1, or Cav1.3, in combination with Cavβ3 and […] (Addgene, Cambridge Mass.) using FuGENE 6 (Life Technologies, Grand Island, N.Y.). All cells were maintained in DMEM supplemented with 10% fetal bovine serum. For the stable cell line expressing N-type channels, 25 μg/mL zeocin, 5 μg/mL blasticidin, and 25 μg/mL hygromycin were added as selection agents.
Whole-cell patch clamp recordings of calcium current. […] Briefly, the pipette solution consisted of […] Cs2SO4, 60 mM CsCl, 1 mM MgCl2, 10 mM 4-(2-hydroxyethyl)-1-piperazineethanesulfonic acid (HEPES) at pH 7.4. […] Patch pipettes were fabricated from borosilicate glass and pulled to a resistance of about 1 MΩ. Before each experiment, a stock solution consisting of 3 mg amphotericin-B dissolved into 50 μL anhydrous DMSO was made. […] Capacitive currents and passive membrane responses to voltage commands were subtracted from the data. Currents were amplified by an Axopatch 200B amplifier, filtered at 5 KHz, and digitized at 10 KHz for subsequent analysis using pClamp software (Axon Instruments/Molecular Devices; Sunnyvale, Calif.). […] To measure effects on calcium channel tail currents, the tail current integral was measured before and after application of a derivative, with the integral of each trace being normalized to its peak. All experiments were carried out at room temperature (22° C.). […] All other salts and chemicals were obtained from Sigma-Aldrich chemical company (St. Louis, Mo.).
(§1) Statistical Analysis. Statistical analysis was performed using either GraphPad Prism 5 (GraphPad Software, Inc.) or Origin 7 (OriginLab) software. For the dose-response analyses on Ca^2+ current, each concentration of the four different compounds was tested in 3-6 cells. […] All EC50 and IC50 values and their respective errors were determined by performing 100 iterations of a logistic function curve fit. Data are presented as mean±s.e.m. unless otherwise noted.

cdk2 cyclinA(h) = target: T2, cdk2 cyclinA(h) (Homo sapiens, UniProt P24941); assay: Kinase inhibitory activity (EMD Millipore KinaseProfiler), cdk2; format: biochemical
T2 construct: purchased EMD Millipore KinaseProfiler service (Millipore UK Ltd.)
Procedure: (§2) Kinase inhibitory activity. Kinase inhibitory activities were determined using the EMD Millipore KinaseProfiler™ service (Millipore UK Ltd.). Each compound's kinase inhibitory activity was tested at three different concentrations (0.2 μM, 2 μM, and 20 μM) against five different kinases: Cdk1 cyclinB(h), cdk2 cyclinA(h), cdk5 p35(h), mitogen-activated protein kinase (MAPK1(h)) and myosin light-chain kinase (MLCK(h)).
(§3) Statistical Analysis. […] For the dose-response analyses on Ca^2+ current, each concentration of the four different compounds was tested in 3-6 cells. […] All EC50 and IC50 values and their respective errors were determined by performing 100 iterations of a logistic function curve fit.

Cdk1 cyclinB(h) = target: T3, Cdk1 cyclinB(h) (Homo sapiens, UniProt P06493); assay: Kinase inhibitory activity (EMD Millipore KinaseProfiler), cdk1; format: biochemical; settings: 20 μM highest concentration used; read-out: Cdk1 EC50/IC50 affinities
T3 construct: purchased EMD Millipore KinaseProfiler service (Millipore UK Ltd.)
Procedure: as §2, §1

cdk5 p35(h) = target: T4, cdk5 p35(h) (Homo sapiens, UniProt Q00535); assay: Kinase inhibitory activity (EMD Millipore KinaseProfiler), cdk5; format: biochemical; settings: 20 μM highest concentration used; read-out: Cdk5 EC50/IC50 affinities
T4 construct: purchased EMD Millipore KinaseProfiler service (Millipore UK Ltd.)
Procedure: as §2, §1

[2] = target: T5, mitogen-activated protein kinase (MAPK1(h)) (Homo sapiens, UniProt P27361); assay: Kinase inhibitory activity (EMD Millipore KinaseProfiler), MAPK1; format: biochemical; settings: 20 μM highest concentration used; read-out: MAPK EC50/IC50 affinities
T5 construct: purchased EMD Millipore KinaseProfiler service (Millipore UK Ltd.)
Procedure: as §2, §3

[3] = target: T6, myosin light-chain kinase (MLCK(h)) (Homo sapiens, UniProt Q9H1R3); assay: Kinase inhibitory activity (EMD Millipore KinaseProfiler), MLCK; format: biochemical; settings: 20 μM highest concentration used; read-out: MLCK EC50/IC50 affinities
T6 construct: purchased EMD Millipore KinaseProfiler service (Millipore UK Ltd.)
Procedure: as §2, §3

[4] = Solubility in saline with 1% DMSO; format: physicochemical; settings: saline or isotonic, kinetic from dmso stock
[5] = Table 3, calcium channel agonist, read-out: N-type EC50/IC50 affinities
[6] = whole cell perforated patch clamp, deactivation (tail) currents from N-type channels, read-out: N-Type Ca^2+ Channel Activity EC50 +/− SEM

T1 sequence (Q02294 whole entry): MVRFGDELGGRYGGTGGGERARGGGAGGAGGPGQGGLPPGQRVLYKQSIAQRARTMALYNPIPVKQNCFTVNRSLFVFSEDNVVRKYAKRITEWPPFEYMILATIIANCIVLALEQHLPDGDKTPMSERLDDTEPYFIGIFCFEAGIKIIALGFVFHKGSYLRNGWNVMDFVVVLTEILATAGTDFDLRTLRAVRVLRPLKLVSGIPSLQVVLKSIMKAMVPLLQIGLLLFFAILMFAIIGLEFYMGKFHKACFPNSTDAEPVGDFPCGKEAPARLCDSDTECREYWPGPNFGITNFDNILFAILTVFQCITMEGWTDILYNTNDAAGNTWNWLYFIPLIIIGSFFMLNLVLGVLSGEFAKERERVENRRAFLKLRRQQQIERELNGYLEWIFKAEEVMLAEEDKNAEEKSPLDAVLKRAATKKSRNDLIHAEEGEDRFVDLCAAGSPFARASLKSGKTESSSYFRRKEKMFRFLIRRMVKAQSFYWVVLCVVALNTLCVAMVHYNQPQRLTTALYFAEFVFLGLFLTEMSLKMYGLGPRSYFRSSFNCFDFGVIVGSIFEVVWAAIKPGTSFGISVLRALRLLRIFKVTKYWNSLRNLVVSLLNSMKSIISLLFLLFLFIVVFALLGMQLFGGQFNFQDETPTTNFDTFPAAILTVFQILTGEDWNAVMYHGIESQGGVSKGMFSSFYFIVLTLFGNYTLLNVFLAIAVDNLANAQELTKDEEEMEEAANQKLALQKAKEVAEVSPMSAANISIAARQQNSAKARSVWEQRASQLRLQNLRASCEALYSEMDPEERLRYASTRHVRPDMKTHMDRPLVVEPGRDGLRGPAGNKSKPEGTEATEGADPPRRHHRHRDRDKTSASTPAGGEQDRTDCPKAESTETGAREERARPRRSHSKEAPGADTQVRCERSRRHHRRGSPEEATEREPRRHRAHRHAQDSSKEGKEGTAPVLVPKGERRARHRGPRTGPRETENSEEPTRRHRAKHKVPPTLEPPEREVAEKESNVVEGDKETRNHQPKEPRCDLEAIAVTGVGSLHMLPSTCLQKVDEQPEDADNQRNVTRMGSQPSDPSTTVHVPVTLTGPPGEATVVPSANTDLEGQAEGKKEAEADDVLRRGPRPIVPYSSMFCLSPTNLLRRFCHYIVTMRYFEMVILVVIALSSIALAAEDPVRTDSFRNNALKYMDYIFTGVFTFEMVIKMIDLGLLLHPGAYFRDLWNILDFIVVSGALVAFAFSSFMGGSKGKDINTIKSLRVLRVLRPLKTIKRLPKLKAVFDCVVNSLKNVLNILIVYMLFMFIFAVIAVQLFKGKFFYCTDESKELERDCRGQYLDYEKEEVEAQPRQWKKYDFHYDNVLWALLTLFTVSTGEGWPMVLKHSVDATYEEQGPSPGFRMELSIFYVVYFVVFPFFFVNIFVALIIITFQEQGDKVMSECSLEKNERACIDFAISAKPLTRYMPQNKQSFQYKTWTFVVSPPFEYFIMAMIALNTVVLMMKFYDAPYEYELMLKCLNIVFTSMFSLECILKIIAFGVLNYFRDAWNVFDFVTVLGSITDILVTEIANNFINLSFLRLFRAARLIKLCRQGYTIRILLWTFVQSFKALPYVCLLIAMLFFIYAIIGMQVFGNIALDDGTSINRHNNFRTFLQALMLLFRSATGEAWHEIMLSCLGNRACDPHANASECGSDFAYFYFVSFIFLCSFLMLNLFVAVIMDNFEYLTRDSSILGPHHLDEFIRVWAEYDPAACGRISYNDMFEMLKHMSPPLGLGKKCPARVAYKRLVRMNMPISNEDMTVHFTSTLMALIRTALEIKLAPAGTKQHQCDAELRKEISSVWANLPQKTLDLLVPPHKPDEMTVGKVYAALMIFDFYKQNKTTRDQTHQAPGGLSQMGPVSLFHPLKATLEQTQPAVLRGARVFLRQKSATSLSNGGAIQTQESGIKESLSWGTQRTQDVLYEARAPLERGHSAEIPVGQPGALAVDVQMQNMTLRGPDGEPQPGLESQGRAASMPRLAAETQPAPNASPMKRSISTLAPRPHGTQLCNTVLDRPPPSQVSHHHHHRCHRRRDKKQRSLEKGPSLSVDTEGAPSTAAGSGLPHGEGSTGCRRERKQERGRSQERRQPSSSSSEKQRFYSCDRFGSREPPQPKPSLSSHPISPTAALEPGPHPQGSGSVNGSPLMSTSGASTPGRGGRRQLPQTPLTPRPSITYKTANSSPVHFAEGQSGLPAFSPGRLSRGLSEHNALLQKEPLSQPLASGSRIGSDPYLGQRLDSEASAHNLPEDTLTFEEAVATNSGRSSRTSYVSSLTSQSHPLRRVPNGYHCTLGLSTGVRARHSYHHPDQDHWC
T5 sequence (P27361 whole entry): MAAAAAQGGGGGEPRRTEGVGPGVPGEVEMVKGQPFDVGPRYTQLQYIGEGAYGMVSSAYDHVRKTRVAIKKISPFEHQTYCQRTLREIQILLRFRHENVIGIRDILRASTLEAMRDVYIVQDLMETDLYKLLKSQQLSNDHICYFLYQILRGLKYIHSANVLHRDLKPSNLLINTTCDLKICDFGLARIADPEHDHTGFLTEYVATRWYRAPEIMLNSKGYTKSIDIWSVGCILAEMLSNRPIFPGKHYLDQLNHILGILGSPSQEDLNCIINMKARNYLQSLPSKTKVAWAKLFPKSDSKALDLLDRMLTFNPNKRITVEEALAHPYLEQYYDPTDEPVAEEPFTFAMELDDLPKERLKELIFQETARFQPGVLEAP
T4 sequence (Q00535 whole entry): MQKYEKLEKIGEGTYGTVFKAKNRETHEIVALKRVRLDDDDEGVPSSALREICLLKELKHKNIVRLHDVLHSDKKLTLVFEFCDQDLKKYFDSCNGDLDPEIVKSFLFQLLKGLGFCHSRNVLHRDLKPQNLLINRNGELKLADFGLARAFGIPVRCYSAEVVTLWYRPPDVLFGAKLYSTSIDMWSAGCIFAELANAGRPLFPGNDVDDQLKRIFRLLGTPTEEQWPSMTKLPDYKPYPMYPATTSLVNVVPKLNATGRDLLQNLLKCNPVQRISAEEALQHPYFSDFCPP
T4 sequence (Q15078 whole entry partner): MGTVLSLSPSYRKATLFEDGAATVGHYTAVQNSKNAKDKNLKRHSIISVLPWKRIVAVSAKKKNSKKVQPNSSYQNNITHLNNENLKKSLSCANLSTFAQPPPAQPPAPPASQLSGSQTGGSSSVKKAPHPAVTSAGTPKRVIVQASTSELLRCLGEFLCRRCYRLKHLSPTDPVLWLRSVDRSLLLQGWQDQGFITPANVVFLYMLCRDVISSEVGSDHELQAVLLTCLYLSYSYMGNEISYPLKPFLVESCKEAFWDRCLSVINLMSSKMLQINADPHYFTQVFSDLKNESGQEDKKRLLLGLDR
T3 sequence (P06493 whole entry): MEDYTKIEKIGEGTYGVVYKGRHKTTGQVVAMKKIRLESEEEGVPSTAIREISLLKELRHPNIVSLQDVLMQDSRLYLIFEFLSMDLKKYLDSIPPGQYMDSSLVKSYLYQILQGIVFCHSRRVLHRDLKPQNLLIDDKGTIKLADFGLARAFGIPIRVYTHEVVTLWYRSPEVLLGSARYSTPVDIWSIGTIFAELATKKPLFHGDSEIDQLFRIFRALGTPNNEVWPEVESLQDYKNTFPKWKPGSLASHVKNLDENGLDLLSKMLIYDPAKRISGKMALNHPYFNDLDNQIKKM
T3 sequence (P14635 whole entry partner): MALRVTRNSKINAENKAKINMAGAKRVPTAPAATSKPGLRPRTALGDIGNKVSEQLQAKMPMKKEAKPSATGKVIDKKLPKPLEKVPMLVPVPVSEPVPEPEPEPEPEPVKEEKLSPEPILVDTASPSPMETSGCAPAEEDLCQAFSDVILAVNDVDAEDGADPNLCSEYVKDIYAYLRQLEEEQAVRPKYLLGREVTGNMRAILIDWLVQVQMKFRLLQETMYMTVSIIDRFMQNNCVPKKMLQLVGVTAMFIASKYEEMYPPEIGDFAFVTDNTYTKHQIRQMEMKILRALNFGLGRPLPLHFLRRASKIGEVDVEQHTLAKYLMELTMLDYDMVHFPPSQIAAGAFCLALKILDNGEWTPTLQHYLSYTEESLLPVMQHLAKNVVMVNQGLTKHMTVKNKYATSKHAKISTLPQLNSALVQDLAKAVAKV

| SMILES | decreased channel activity vs 13u [1] | agonist effect on the Ca^2+ channel tail currents (in words) ([1]; N-type) | maximal fold increase in the tail current integral relative to control ([1]; N-type channels) [fold] | EC50 [1, 5] [µM] | EC50 [1, 6] [µM] | IC50 (cdk2 cyclinA(h); 20 μM highest concentration used, read-out: Cdk2 EC50/IC50 affinities) [µM] | EC50 (cdk2 cyclinA(h); determined in duplicate at 0.2, 2, and 20 μM, read-out: Cdk2 Activity EC50 +/− SEM) [µM] | IC50 (Cdk1 cyclinB(h)) [µM] | IC50 (cdk5 p35(h)) [nM] | IC50 [2] [µM] | IC50 [3] [µM] | increased Ca^2+ channel agonism vs. (R)-roscovitine ([1]; N-type) [fold] | solubility [4] [µM] |
| --- | --- | --- | --- | --- | --- | --- | --- | --- | --- | --- | --- | --- | --- |
| CC[C@H](CO)Nc1nc(NCc2ccc(C)s2)c2ncn(C)c2n1 [Compound 13w, (2R)-2-[(9-Methyl-6-{[(5-methylthiophen-2-yl)methyl]amino}-9H-purin-2-yl)amino]butan-1-ol] | ca. 3 fold | strong agonist effect | ~13 | 30 ± 1.87 | 30 ± 1.87 | 3.04 ± 0.17 | 3 | 10.5 ± 2.77 | 2810 ± 910 | > 20 | > 20 | – | – |
| CC[C@H](CO)Nc1nc(NCc2ccc(C)s2)c2ncn(C(C)C)c2n1 [Compound 13u, (R)-2-(9-Isopropyl-6-((5-methylthiophen-2-yl)methylamino)-9H-purin-2-ylamino)butan-1-ol] | – | strong agonist effect | – | 11.3 ± 1.48 | 11.3 ± 1.48 | – | – | – | – | > 20 | 19.5 ± 8.65 | ~4 | – |
| CC[C@H](CO)Nc1nc(NCc2ccccc2)c2ncn(C)c2n1 [Compound 13k, (R)-2-(6-(Benzylamino)-9-methyl-9H-purin-2-ylamino)butan-1-ol] | – | – | – | – | > 70 | – | – | – | – | – | – | – | ≤ 200 |
